Paper PMC4588393 (EBioMedicine, 2015)
Where a name gives a salt, the structure may show the parent alone. Bridge positions count the residues as written; N and C are the ends. Square brackets hold non-standard residues; d marks the D form. Peptide text beside a SMILES is read from it. * marks the point of attachment. X1 = CC[C@H](C)CCCCC(=O)*; Dab = NCC[C@H](N)C(=O)O

Legend:
S. Typhimurium 14028 = type: cell-based, Salmonella enterica Typhimurium
[1] = system: TIVAR + S. Typhimurium 14028; design: species or system BALB/c mice; conditions: in vivo
[2] = system: TIVAR − S. Typhimurium var. 5 (04)-9639; design: species or system BALB/c mice; conditions: in vivo
[3] = in vivo; cited from earlier work

SMILES	effect of pH and media composition on efficacy of antibiotic (S. Typhimurium 14028)	resistance linked to growth in LPM pH 5.5 medium (MIC ratio of LPM pH 5.5/pH 7.0 to MHB pH 5.5/pH 7.2) (S. Typhimurium 14028) [fold]	other results
CO/N=C(\C(=O)N[C@@H]1C(=O)N2C(C(=O)O)=C(CSC(=O)c3ccco3)CS[C@H]12)c1csc(N)n1 [Ceftiofur, ceftiofur]	unaffected		
O=C(N[C@H](CO)[C@H](O)c1ccc([N+](=O)[O-])cc1)C(Cl)Cl [Chloramphenicol, chloramphenicol]	unaffected		
O=C(O)c1cn(C2CC2)c2cc(N3CCNCC3)c(F)cc2c1=O [Ciprofloxacin, ciprofloxacin]			mouse survival post-infection [1]: at least 10 days
CC[C@H](C)CCCCC(=O)N[C@@H](CCN)C(=O)N[C@H](C(=O)N[C@@H](CCN)C(=O)N[C@H]1CCNC(=O)[C@H]([C@@H](C)O)NC(=O)[C@H](CCN)NC(=O)[C@H](CCN)NC(=O)[C@H](CC(C)C)NC(=O)[C@@H](CC(C)C)NC(=O)[C@H](CCN)NC1=O)[C@@H](C)O [Colistin sulfate, colistin sulfate] (X1-[Dab]T[Dab][Dab][Dab][dL]L[Dab][Dab]T; lactam 4-C (inferred); N-terminus assumed)		256	
CC[C@H](C)CCCCC(=O)N[C@@H](CCN)C(=O)N[C@H](C(=O)N[C@@H](CCN)C(=O)N[C@H]1CCNC(=O)[C@H]([C@@H](C)O)NC(=O)[C@H](CCN)NC(=O)[C@H](CCN)NC(=O)[C@H](CC(C)C)NC(=O)[C@@H](Cc2ccccc2)NC(=O)[C@H](CCN)NC1=O)[C@@H](C)O [Polymyxin B, polymyxin B] (X1-[Dab]T[Dab][Dab][Dab][dF]L[Dab][Dab]T; lactam 4-C (inferred); N-terminus assumed)		64	mouse survival post-infection [2]: at least 10 days; time within which all treated mice died ([1]; mouse): ≤ 7 days; circulating PMB levels [3]: 0.5 to 2.5 mg/L
CN(C)[C@@H]1C(O)=C(C(N)=O)C(=O)[C@@]2(O)C(O)=C3C(=O)c4c(O)cccc4[C@@](C)(O)[C@H]3C[C@@H]12 [Tetracycline, tetracycline]	unaffected		
COc1cc(Cc2cnc(N)nc2N)cc(OC)c1OC [Trimethoprim, trimethoprim]		4	
